From ChEMBL document CHEMBL3864140, “Melanogenesis inhibitory activity of a 7-O-9'-linked neolignan from Alpinia galanga fruit” (Bioorg Med Chem, 2016)

Columns and labels:
[1] = Antimelanogenic activity in theophylline-stimulated mouse B16-4A5 cells assessed as inhibition of melanogenesis at 3 uM after 72 hrs relative to control; format: functional; conditions: B16-4A5, 72 h
[2] = Antimelanogenic activity in theophylline-stimulated mouse B16-4A5 cells assessed as inhibition of melanogenesis at 10 uM after 72 hrs relative to control; format: functional; conditions: B16-4A5, 72 h
[3] = Antimelanogenic activity in theophylline-stimulated mouse B16-4A5 cells assessed as inhibition of melanogenesis after 72 hrs relative to control; format: functional, cell-based
[4] = Cytotoxicity against theophylline-stimulated mouse B16-4A5 cells assessed as cell viability at 3 uM after 72 hrs by MTT assay relative to control; format: toxicity; conditions: theophylline-stimulated B16-4A5 cells, read-out: Activity
[5] = Cytotoxicity against theophylline-stimulated mouse B16-4A5 cells assessed as cell viability at 10 uM after 72 hrs by MTT assay relative to control; format: toxicity; conditions: theophylline-stimulated B16-4A5 cells, read-out: Activity
[6] = Cytotoxicity against theophylline-stimulated mouse B16-4A5 cells assessed as cell viability at 30 uM after 72 hrs by MTT assay relative to control; format: toxicity; conditions: theophylline-stimulated B16-4A5 cells, read-out: Activity
[7] = Cytotoxicity against theophylline-stimulated mouse B16-4A5 cells assessed as cell viability at 100 uM after 72 hrs by MTT assay relative to control; format: toxicity; conditions: theophylline-stimulated B16-4A5 cells, read-out: Activity
cells [8] = conditions: Mus musculus, B16-4A5, 72 h, read-out: INH
Description: Antimelanogenic activity in theophylline-stimulated mouse B16-4A5 cells assessed as inhibition of melanogenesis at 30 uM after 72 hrs relative to control

cells [9] = conditions: Mus musculus, B16-4A5, 72 h, read-out: INH; remark: listed apart in the source
[10] = Antimelanogenic activity in theophylline-stimulated mouse B16-4A5 cells assessed as inhibition of melanogenesis at 0.3 uM after 72 hrs relative to control; format: functional; conditions: B16-4A5, 72 h
[11] = Antimelanogenic activity in theophylline-stimulated mouse B16-4A5 cells assessed as inhibition of melanogenesis at 1 uM after 72 hrs relative to control; format: functional; conditions: B16-4A5, 72 h
[12] = Cytotoxicity against theophylline-stimulated mouse B16-4A5 cells assessed as cell viability at 0.3 uM after 72 hrs by MTT assay relative to control; format: toxicity; conditions: theophylline-stimulated B16-4A5 cells, read-out: Activity
[13] = Cytotoxicity against theophylline-stimulated mouse B16-4A5 cells assessed as cell viability at 1 uM after 72 hrs by MTT assay relative to control; format: toxicity; conditions: theophylline-stimulated B16-4A5 cells, read-out: Activity
[14] = Potency index, ratio of arbutin IC50 to compound IC50 for antimelanogenic activity in mouse B16-4A5 cells; format: functional
[15] = Downregulation of tyrosinase expression in theophylline-stimulated mouse B16-4A5 cells assessed as ratio of tyrosinase mRNA expression to beta-actin mRNA expression at 3 uM after 72 hrs by qRT-PCR analysis (reference value: […] +/- […]); format: functional, cell-based
[16] = Downregulation of tyrosinase expression in theophylline-stimulated mouse B16-4A5 cells assessed as ratio of tyrosinase mRNA expression to beta-actin mRNA expression at 10 uM after 72 hrs by qRT-PCR analysis (reference value: […] +/- […]); format: functional, cell-based
[17] = Downregulation of TRP1 expression in theophylline-stimulated mouse B16-4A5 cells assessed as ratio of TRP1 mRNA expression to beta-actin mRNA expression at 3 uM after 72 hrs by qRT-PCR analysis (reference value: […] +/- […]); format: functional, cell-based
[18] = Downregulation of TRP1 expression in theophylline-stimulated mouse B16-4A5 cells assessed as ratio of TRP1 mRNA expression to beta-actin mRNA expression at 10 uM after 72 hrs by qRT-PCR analysis (reference value: […] +/- […]); format: functional, cell-based
[19] = Downregulation of TRP2 expression in theophylline-stimulated mouse B16-4A5 cells assessed as ratio of TRP2 mRNA expression to beta-actin mRNA expression at 3 uM after 72 hrs by qRT-PCR analysis (reference value: […] +/- […]); format: functional, cell-based
[20] = Downregulation of TRP2 expression in theophylline-stimulated mouse B16-4A5 cells assessed as ratio of TRP2 mRNA expression to beta-actin mRNA expression at 10 uM after 72 hrs by qRT-PCR analysis (reference value: […] +/- […]); format: functional, cell-based

| IC50 [3] | Structure (SMILES) | inhibition at 3 µM [1] | inhibition at 10 µM [2] | viability at 72 h, 3 µM [4] | viability at 72 h, 10 µM [5] | viability at 72 h, 30 µM [6] | viability at 72 h, 100 µM [7] | inhibition at 30 µM (cells [8]) | inhibition at 100 µM (cells [9]) | inhibition at 0.3 µM [10] | inhibition at 1 µM [11] | viability at 72 h, 0.3 µM [12] | viability at 72 h, 1 µM [13] | Ratio IC50 [14] | Ratio [15] | Ratio [16] | Ratio [17] | Ratio [18] | Ratio [19] | Ratio [20] |
| --- | --- | --- | --- | --- | --- | --- | --- | --- | --- | --- | --- | --- | --- | --- | --- | --- | --- | --- | --- | --- |
| 29.4 µM | CC(=O)Oc1ccc(/C=C/CO)cc1 | 10.7% | 18% | 92.9% | 85.8% | 65.5% | 44.9% | 96.9% | 94.8% |  |  |  |  |  |  |  |  |  |  |  |
| 18.3 µM | O=C/C=C/c1ccc(O)cc1 [p-HYDROXYCINNAMALDEHYDE] | 8.9% | 12.8% | 103% | 108% | 94.3% | 66.8% | 67.4% | 104% |  |  |  |  |  |  |  |  |  |  |  |
| > 100 µM | OC/C=C/c1ccc(O)cc1 | -3.4% | -2.8% | 98.9% | 98.4% | 116% | 110% | 35.8% | 46.9% |  |  |  |  |  |  |  |  |  |  |  |
| 49.2 µM | COc1cc(C=O)ccc1O [VANILLIN] | -8.4% | 8.4% | 108% | 104% | 104% | 106% | 49.7% | 96.1% |  |  |  |  |  |  |  |  |  |  |  |
| 2.2 µM | C=CC(OC/C=C/c1ccc(OC(C)=O)cc1)c1ccc(OC(C)=O)cc1 (racemic) | 57.2% | -5.5% | 85.2% | 12.9% |  |  |  |  | 10.3% | 32.4% | 105% | 99.3% |  | 0.77 | 0.6 | 0.79 | 0.81 | 0.86 | 0.81 |

Second part, the molecule before the results:

| Structure (SMILES) | IC50 [3] | inhibition at 3 µM [1] | inhibition at 10 µM [2] | viability at 72 h, 3 µM [4] | viability at 72 h, 10 µM [5] | viability at 72 h, 30 µM [6] | viability at 72 h, 100 µM [7] | inhibition at 30 µM (cells [8]) | inhibition at 100 µM (cells [9]) | inhibition at 0.3 µM [10] | inhibition at 1 µM [11] | viability at 72 h, 0.3 µM [12] | viability at 72 h, 1 µM [13] | Ratio IC50 [14] | Ratio [15] | Ratio [16] | Ratio [17] | Ratio [18] | Ratio [19] | Ratio [20] |
| --- | --- | --- | --- | --- | --- | --- | --- | --- | --- | --- | --- | --- | --- | --- | --- | --- | --- | --- | --- | --- |
| C=C[C@H](OC(C)=O)c1ccc(OC(C)=O)cc1 [1'-ACETOXYCHAVICOL ACETATE] | 5 µM | 29.8% | 73.1% | 99.9% | 99.9% |  |  |  |  | 9.3% | 6.2% | 103% | 102% | >25 - 70 | 1 | 0.49 | 0.86 | 0.5 | 1.08 | 0.34 |
| O=Cc1ccc(O)cc1 [4-HYDROXYBENZALDEHYDE] |  | 11.3% | 4.2% | 107% | 103% | 107% | 103% | 7.9% | 3.5% |  |  |  |  |  |  |  |  |  |  |  |
| C=C[C@H](O)c1ccc(OC(C)=O)c(OC)c1 |  | 5% | 10.9% | 104% | 114% | 113% | 124% | 11.7% | 22.9% |  |  |  |  |  |  |  |  |  |  |  |
| CC[C@H](OC(C)=O)c1ccc(OC(C)=O)cc1 | 10.5 µM | 41.6% | 44.5% | 106% | 105% | 96.5% | 94.5% | 74.1% | 105% |  |  |  |  |  |  |  |  |  |  |  |
| C=C[C@@H](OC/C=C/c1ccc(OC(C)=O)cc1)c1ccc(OC(C)=O)cc1 | 1.9 µM | 71.4% | 137% | 81.5% | 29.7% |  |  |  |  | 10.8% | 31.8% | 107% | 102% |  | 0.84 | 0.56 | 0.92 | 0.94 | 1.67 | 0.88 |
| C=C[C@@H](OC(C)=O)c1ccc(OC(C)=O)cc1 | 4.5 µM | 36.8% | 69.2% | 95.2% | 88.7% |  |  |  |  | 8.4% | 21.2% | 96.6% | 98.8% |  |  |  |  |  |  |  |
